Experimental data taken from US10647680B2, “Urea compound, preparation method therefor and medical use thereof” (Ancureall Pharmaceutical (Shanghai) Co., Ltd., priority 2016, dated 2020).
Counter-ions that a name gives are not always drawn.

Tests used:
[1] = system: MV4-11 cell Bab/c nude mouse tumor model; experiment: In vivo tumor growth inhibition experiment; conditions: for effect on body weight of nude mice: compared with the solvent control group
Method: Xenotransplantation in immunodeficient mice is an effective model for testing in vivo antitumor activity of compounds in animals. Bab/c immunodeficient mice are one of the most commonly used tumor cell xenografts. […] Log-phase MV4-11 cells were collected in a 50 ml of centrifuge tube (Corning), centrifuged at 1,700 rpm for 3 minutes, and the supernatant was discarded. Cells were suspended in a 50 ml 1×RPMI 1640 serum-free medium, and centrifuged, the supernatant was discarded and resuspension was performed. The cells were counted (Countess® Automated Cell Counting Apparatus, Invitrogen), prepared into […], placed on ice, and inoculated subcutaneously with 10×10^6 (0.2 ml) to the right back of 6-8-week female Bab/c nude mice (about 20 g in weight) (purchased from Shanghai Sippr-BK Experimental Animal Co., Ltd., Animal Center of Shanghai University of Traditional Chinese Medicine, approved by Ethical Committee of Shanghai University of Traditional Chinese Medicine). When the tumor grew to a size of 100-200 mm^3, animals were randomly grouped and earmarked and weighed. The treatment group consisted of 3 to 6 nude mice in each group. Drugs were prepared into different concentrations of milky suspension with a solvent PTP solution (30% polyethylene glycol 400, 0.5% Tween-80, 2.5% propylene glycol). Animals were given by oral gavage continuously at a concentration of 0.1 ml/10 g body weight, with a dose range of 0.1-200 mg/kg (the purity of the test compound of the present invention was 99% or more, and the proportion of single impurity was not more than 0.1%). In the control group, 3 to 6 nude mice in each group were given the same volume (0.1 ml/10 g body weight) of solvent PTP solution, and the tumors were measured 3 to 4 times per week. When the average tumor volume in the control group reached 1500 mm^3, or on the 28th day of administration, the experiment ended, then the tumor was weighed and subjected to molecular pathology assay.
The tumor volume was calculated as V=½a×b^2, where a is the length and b is the width. The relative tumor volume (RTV) was calculated based on the measured results and the formula was RTV=Vt/V0, where V0 is the measured tumor volume when administered in divided cages (i.e., do), and Vt is the tumor volume at each measurement.

[2] = Solubility test; format: physicochemical; conditions: in water at 25° C.±2° C.
Method: The fine powder of the test sample was weighed into an appropriate amount of water at 25° C.±2° C. and shaken vigorously for 30 seconds every 5 minutes so that it was fully dissolved within 30 minutes. If no visible solute particles were observed, it was considered completely dissolved. “Readily soluble” means that 1 g of the test sample could be dissolved in 1-10 ml of water; and “soluble” means that 1 g of the test sample could be dissolved in 10-30 ml of water; “slightly soluble” means that 1 g of the test sample could be dissolved in 30-100 ml of water; and “sparingly soluble” means that 1 g of the test sample could be dissolved in 100-1,000 ml of water; “nearly insoluble or insoluble” means that 1 g of the test sample could not be completely dissolved in 10,000 ml of water.

[3] = Stability test: high temperature test (60° C.); format: physicochemical; conditions: exposed at 60° C. for 10 days, HPLC
Method: The test samples were placed into an integrated drug stability test chamber (YSEI) in an exposed way at 60° C. for 10 days. Samples were taken on the 5th and 10th days and tested according to the drug stability test indices.
(§1) An appropriate amount of test samples was taken and dissolved in acetonitrile-water (1:1), and quantitatively diluted to a solution of about 0.3 mg/ml. 20 ul of solution was injected into a liquid chromatograph (Agilent 1260 Infinity), the chromatogram was then recorded and calculated according to the percentage area method. The mobile phase was a phosphate buffer and acetonitrile aqueous solution, and then a gradient elution was carried out.

[4] = Stability test: intense light test (4500LX); format: physicochemical; conditions: 4500LX±500LX light for 10 days, HPLC
Method: The test samples were placed into an integrated drug stability test chamber (YSEI) in an exposed way under 4500LX±500LX light for 10 days. Samples were taken on the 5th and 10th days and tested according to the drug stability test indices.
as §1

[5] = Stability test: high humidity test (90%); format: physicochemical; conditions: 25° C., relative humidity 90%±5%, 10 days, HPLC
Method: The test samples were placed into an integrated drug stability test chamber (YSEI) in an exposed way at 25° C. and relative humidity of 90%±5% for 10 days. Samples were taken on the 5th and 10th days and tested according to the drug stability test indices.
as §1

[6] = drug dose 2.5 mg/kg, 15th day of administration

CC(C)(C)c1cc(NC(=O)Nc2ccc(-n3cnc4cc(OCCN5CCOCC5)ccc43)cc2)no1 [Compound 16, 1-(5-tert-butyl-isoxazol-3-yl)-3-{4-[5-(2-morpholin-4-yl-ethoxyl)-benzimidazol-1-yl]-phenyl}-urea]
Tumor Inhibition Rate (%) ([1]; Dose 2.5 mg/kg, Day 6): 82.4% | Tumor Inhibition Rate (%) ([1]; Dose 2.5 mg/kg, Day 10): 96.8% | Tumor Inhibition Rate (%) ([1]; Dose 2.5 mg/kg, Day 15): 100% | Tumor Inhibition Rate (%) ([1]; Dose 2.5 mg/kg, Day 20): 100% | tumor outcome [1, 6]: tumor disappears completely | effect on body weight of nude mice ([1]; drug dose 2.5 mg/kg): no significant effect | Solubility ([2]; listed as 16 Free base): insoluble (“nearly insoluble or insoluble” means that 1 g of the test sample could not be completely dissolved in 10,000 ml of water)

CC(C)(C)c1cc(NC(=O)Nc2ccc(-n3cnc4ccccc43)cc2)[nH]n1 [Compound 68, 1-(4-benzimidazol-1-yl-phenyl)-3-(5-tert-butyl-2H-pyrazol-3-yl)-urea]
Tumor Inhibition Rate (%) ([1]; Dose 2.5 mg/kg, Day 6): 14.6% | Tumor Inhibition Rate (%) ([1]; Dose 2.5 mg/kg, Day 10): 16.2% | Tumor Inhibition Rate (%) ([1]; Dose 2.5 mg/kg, Day 15): 17.8% | Tumor Inhibition Rate (%) ([1]; Dose 2.5 mg/kg, Day 20): 37.5% | Tumor Inhibition Rate (%) ([1]; Dose 2.5 mg/kg, Day 28): 35.3% | Tumor Inhibition Rate (%) ([1]; Dose 5 mg/kg, Day 6): 67.9% | Tumor Inhibition Rate (%) ([1]; Dose 5 mg/kg, Day 10): 71.6% | Tumor Inhibition Rate (%) ([1]; Dose 5 mg/kg, Day 15): 58.5% | Tumor Inhibition Rate (%) ([1]; Dose 5 mg/kg, Day 20): 50.1% | Tumor Inhibition Rate (%) ([1]; Dose 5 mg/kg, Day 28): 62.5% | Tumor Inhibition Rate (%) ([1]; Dose 10 mg/kg, Day 6): 68.9% | Tumor Inhibition Rate (%) ([1]; Dose 10 mg/kg, Day 10): 81.7% | Tumor Inhibition Rate (%) ([1]; Dose 10 mg/kg, Day 15): 90.2% | Tumor Inhibition Rate (%) ([1]; Dose 10 mg/kg, Day 20): 94.8% | Tumor Inhibition Rate (%) ([1]; Dose 10 mg/kg, Day 28): 98.7% | Tumor Inhibition Rate (%) ([1]; Dose 25 mg/kg, Day 6): 86.0% | Tumor Inhibition Rate (%) ([1]; Dose 25 mg/kg, Day 10): 92.5% | Tumor Inhibition Rate (%) ([1]; Dose 25 mg/kg, Day 15): 93.4% | Tumor Inhibition Rate (%) ([1]; Dose 25 mg/kg, Day 20): 96.7% | Tumor Inhibition Rate (%) ([1]; Dose 25 mg/kg, Day 28): 100.0% | Tumor Inhibition Rate (%) ([1]; Dose 50 mg/kg, Day 6): 92.8% | Tumor Inhibition Rate (%) ([1]; Dose 50 mg/kg, Day 10): 98.7% | Tumor Inhibition Rate (%) ([1]; Dose 50 mg/kg, Day 15): 100.0% | Tumor Inhibition Rate (%) ([1]; Dose 100 mg/kg, Day 6): 94.2% | Tumor Inhibition Rate (%) ([1]; Dose 100 mg/kg, Day 10): 100.0% | Tumor Inhibition Rate (%) ([1]; Dose 100 mg/kg, Day 15): 100.0% | Tumor Inhibition Rate (%) ([1]; Dose 200 mg/kg, Day 6): 98.9% | Tumor Inhibition Rate (%) ([1]; Dose 200 mg/kg, Day 10): 100.0% | Tumor Inhibition Rate (%) ([1]; Dose 200 mg/kg, Day 15): 100.0% | effect on body weight of nude mice ([1]; dose ≤25 mg/kg): no significant effect | inhibition rate of tumor growth ([1]; dose ≥25 mg/kg, oral gavage, 6th day after administration): more than 80% | tumor outcome ([1]; dose ≥25 mg/kg, oral gavage, 28th day): tumor disappears completely

COc1ccc2c(c1)ncn2-c1ccc(NC(=O)Nc2cc(C(C)(C)C)n[nH]2)cc1 [Compound 71, 1-(5-tert-butyl-2H-pyrazol-3-yl)-3-[4-(5-methoxyl-benzimidazol-1-yl)-phenyl]-urea]
Tumor Inhibition Rate (%) ([1]; Dose 0.5 mg/kg, Day 6): 37.2% | Tumor Inhibition Rate (%) ([1]; Dose 0.5 mg/kg, Day 10): 34.5% | Tumor Inhibition Rate (%) ([1]; Dose 0.5 mg/kg, Day 15): 32.6% | Tumor Inhibition Rate (%) ([1]; Dose 0.5 mg/kg, Day 20): 36.9% | Tumor Inhibition Rate (%) ([1]; Dose 0.5 mg/kg, Day 28): 37.3% | Tumor Inhibition Rate (%) ([1]; Dose 1 mg/kg, Day 6): 62.2% | Tumor Inhibition Rate (%) ([1]; Dose 1 mg/kg, Day 10): 64.5% | Tumor Inhibition Rate (%) ([1]; Dose 1 mg/kg, Day 15): 69.6% | Tumor Inhibition Rate (%) ([1]; Dose 1 mg/kg, Day 20): 65.4% | Tumor Inhibition Rate (%) ([1]; Dose 1 mg/kg, Day 28): 66.6% | Tumor Inhibition Rate (%) ([1]; Dose 2.5 mg/kg, Day 6): 63.7% | Tumor Inhibition Rate (%) ([1]; Dose 2.5 mg/kg, Day 10): 76.8% | Tumor Inhibition Rate (%) ([1]; Dose 2.5 mg/kg, Day 15): 77.9% | Tumor Inhibition Rate (%) ([1]; Dose 2.5 mg/kg, Day 20): 80.5% | Tumor Inhibition Rate (%) ([1]; Dose 2.5 mg/kg, Day 28): 83.8% | Tumor Inhibition Rate (%) ([1]; Dose 5 mg/kg, Day 6): 84.5% | Tumor Inhibition Rate (%) ([1]; Dose 5 mg/kg, Day 10): 94.3% | Tumor Inhibition Rate (%) ([1]; Dose 5 mg/kg, Day 15): 98.8% | Tumor Inhibition Rate (%) ([1]; Dose 5 mg/kg, Day 20): 100.0% | Tumor Inhibition Rate (%) ([1]; Dose 5 mg/kg, Day 28): 100% | Tumor Inhibition Rate (%) ([1]; Dose 10 mg/kg, Day 6): 87.2% | Tumor Inhibition Rate (%) ([1]; Dose 10 mg/kg, Day 10): 96.4% | Tumor Inhibition Rate (%) ([1]; Dose 10 mg/kg, Day 15): 99.8% | Tumor Inhibition Rate (%) ([1]; Dose 10 mg/kg, Day 20): 100% | Tumor Inhibition Rate (%) ([1]; Dose 10 mg/kg, Day 28): 100% | Tumor Inhibition Rate (%) ([1]; Dose 25 mg/kg, Day 6): 90.0% | Tumor Inhibition Rate (%) ([1]; Dose 25 mg/kg, Day 10): 98.0% | Tumor Inhibition Rate (%) ([1]; Dose 25 mg/kg, Day 15): 100.0% | Tumor Inhibition Rate (%) ([1]; Dose 25 mg/kg, Day 20): 100.0% | Tumor Inhibition Rate (%) ([1]; Dose 25 mg/kg, Day 28): 100% | Tumor Inhibition Rate (%) ([1]; Dose 50 mg/kg, Day 6): 91.6% | Tumor Inhibition Rate (%) ([1]; Dose 50 mg/kg, Day 10): 99.0% | Tumor Inhibition Rate (%) ([1]; Dose 50 mg/kg, Day 15): 100.0% | Tumor Inhibition Rate (%) ([1]; Dose 200 mg/kg, Day 6): 93.1% | Tumor Inhibition Rate (%) ([1]; Dose 200 mg/kg, Day 10): 100.0% | Tumor Inhibition Rate (%) ([1]; Dose 200 mg/kg, Day 15): 100.0% | tumor growth inhibitory activity compared with compound 68 ([1]; MV4-11 xenograft): stronger tumor growth inhibitory activity | tumor growth inhibitory activity ([1]; dose of 1 to 2.5 mg/kg, oral gavage): obvious tumor growth inhibitory activity | effect on body weight of nude mice ([1]; dose ≤25 mg/kg): no significant effect | Solubility ([2]; listed as 71 Free base): insoluble (“nearly insoluble or insoluble” means that 1 g of the test sample could not be completely dissolved in 10,000 ml of water)

COCCOc1ccc2c(c1)ncn2-c1ccc(NC(=O)Nc2cc(C(C)(C)C)n[nH]2)cc1 [Compound 77 Mesylate, 1-(5-tert-butyl-2H-pyrazol-3-yl)-3-{4-[5-(2-methoxyl-ethoxyl)-benzimidazol-1-yl]-phenyl}-urea]
High temperature (60° C.) [3]: stable | Solubility ([2]; listed as 77 Mesylate): soluble (“soluble” means that 1 g of the test sample could be dissolved in 10-30 ml of water) | Lighting (4500 LX) [4]: stable | High Humidity (90%) [5]: stable

COCCOc1ccc2c(c1)ncn2-c1ccc(NC(=O)Nc2cc(C(C)(C)C)n[nH]2)cc1 [Compound 77, 1-(5-tert-butyl-2H-pyrazol-3-yl)-3-{4-[5-(2-methoxyl-ethoxyl)-benzimidazol-1-yl]-phenyl}-urea]
Tumor Inhibition Rate (%) ([1]; Dose 2.5 mg/kg, Day 6): 79.2% | Tumor Inhibition Rate (%) ([1]; Dose 2.5 mg/kg, Day 10): 93.2% | Tumor Inhibition Rate (%) ([1]; Dose 2.5 mg/kg, Day 15): 100% | Tumor Inhibition Rate (%) ([1]; Dose 2.5 mg/kg, Day 20): 100% | tumor outcome [1, 6]: tumor disappears completely | effect on body weight of nude mice ([1]; drug dose 2.5 mg/kg): no significant effect | Solubility ([2]; listed as 77 Free base): insoluble (“nearly insoluble or insoluble” means that 1 g of the test sample could not be completely dissolved in 10,000 ml of water)
